From BindingDB's records for doi:10.1021/jm9600611 (Cytel, 1996) come the findings set out here.

The IC50 is the concentration that inhibits the measured activity by half. Higher therefore signals lower potency.

This test in a line: Compound was tested for the inhibition of E-selectin-mediated cellular adhesion.

SMILES strings stand for the structures.

Consider `CCO[C@@H]1O[C@@H](CO)[C@H](O)[C@H](O[C@@H]2O[C@@H](CO)[C@@H](O[C@@H]3O[C@@H](CO)[C@H](O)[C@H](O[C@]4(C(=O)O)C[C@@H](O)[C@@H](NC(C)=O)[C@H]([C@H](O)[C@H](O)CO)O4)[C@@H]3O)[C@H](O[C@@H]3O[C@@H](C)[C@@H](O)[C@H](O)[C@@H]3O)[C@@H]2NC(=O)c2ccc3ccccc3c2)[C@@H]1O` [Ethyl(Sodium 5-actamido-3,5-dideoxy-alpha-D-glycero-D-galacto-nonulopyronosylonate)-(2,3)-O-(beta-D-galactopyranosyl)-(1,4)-O(alpha-L-fucopyranosyl)-(1,3)-O-[2-(2-naphthamido)-2-deoxy-beta-D-glucopyranosyl]-(1,3)-O-beta-D-galactopyranoside], for which the IC50 was found to be 80 µM.

Regarding `CCO[C@@H]1O[C@@H](CO)[C@H](O)[C@H](O[C@@H]2O[C@@H](CO)[C@@H](O[C@@H]3O[C@@H](CO)[C@H](O)[C@H](O[C@]4(C(=O)O)C[C@@H](O)[C@@H](NC(C)=O)[C@H]([C@H](O)[C@H](O)CO)O4)[C@@H]3O)[C@H](O[C@@H]3O[C@@H](C)[C@@H](O)[C@H](O)[C@@H]3O)[C@@H]2NC(C)=O)[C@@H]1O` [Ethyl(Sodium 5-actamido-3,5-dideoxy-alpha-D-glycero-D-galacto-nonulopyronosylonate)-(2,3)-O-(beta-D-galactopyranosyl)-(1,4)-O(alpha-L-fucopyranosyl)-(1,3)-O-[2-(N-acetylamido)-2-deoxy-beta-D-glucopyranosyl]-(1,3)-O-beta-D-galactopyranoside(N-acetyl SLex)], the midpoint of inhibition, the IC50, lay at 1000 µM.

Take `CCO[C@@H]1O[C@@H](CO)[C@H](O)[C@H](O[C@@H]2O[C@@H](CO)[C@@H](O[C@@H]3O[C@@H](CO)[C@H](O)[C@H](O[C@]4(C(=O)O)C[C@@H](O)[C@@H](NC(C)=O)[C@H]([C@H](O)[C@H](O)CO)O4)[C@@H]3O)[C@H](O[C@@H]3O[C@@H](C)[C@@H](O)[C@H](O)[C@@H]3O)[C@@H]2NC(=O)C2CCCCC2)[C@@H]1O` [Ethyl(Sodium 5-actamido-3,5-dideoxy-alpha-D-glycero-D-galacto-nonulopyronosylonate)-(2,3)-O-(beta-D-galactopyranosyl)-(1,4)-O(alpha-L-fucopyranosyl)-(1,3)-O-[2-(Cyclohexanecarboxylic acid amido)-2-deoxy-beta-D-glucopyranosyl]-(1,3)-O-beta-D-galactopyranoside]: 2900 µM corresponded to half-maximal inhibition (IC50).

In turn, `CCO[C@@H]1O[C@@H](CO)[C@H](O)[C@H](O[C@@H]2O[C@@H](CO)[C@@H](O[C@@H]3O[C@@H](CO)[C@H](O)[C@H](O[C@]4(C(=O)O)C[C@@H](O)[C@@H](NC(C)=O)[C@H]([C@H](O)[C@H](O)CO)O4)[C@@H]3O)[C@H](O[C@@H]3O[C@@H](C)[C@@H](O)[C@H](O)[C@@H]3O)[C@@H]2NC(=O)c2ccccc2)[C@@H]1O` [Ethyl(Sodium 5-actamido-3,5-dideoxy-alpha-D-glycero-D-galacto-nonulopyronosylonate)-(2,3)-O-(beta-D-galactopyranosyl)-(1,4)-O(alpha-L-fucopyranosyl)-(1,3)-O-[2-(benzamido)-2-deoxy-beta-D-glucopyranosyl]-(1,3)-O-beta-D-galactopyranoside] came in with an IC50 of 300 µM.
